Experiment [1] deals with human G2 acute lymphoblastic leukemia (ALL) cells. Put plainly: Flow cytometry cell-based assay: inhibition of soluble VCAM-1 binding to G2 ALL cells. The method, then:
(§1) Compounds were tested for their ability to inhibit the binding of soluble VCAM-1 to human G2 acute lymphoblastic leukemia (ALL) cells. Briefly, G2 ALL cells are pre-incubated with increasing concentrations (0.001 to 1000 nM) of compounds for 30 minutes. Soluble VCAM/Fc chimera protein (R&D systems) is then added to the mixture and the cells incubated for an additional 30 minutes. Afterwards, cells are washed and VCAM-1 is detected using PE-conjugated secondary mAbs. In each experiment, an aliquot of cells will be stained with isotype control mAbs to serve as a negative control. The percentage of VCAM-1 binding cells was then determined by flow cytometry.
as §1, with “(ALL) cells or 5TGMI myeloma” for “(ALL)”, “ALL or 5TGMI” for “ALL”

Experiment [2] has as its system LSK cells. The experiment is described as follows: Flow cytometric enumeration of mobilized LSK cells, DBA/2J mice. The settings on record: for LSK cell mobilization compared with firategrast: FIG. 17. The experiment is classed as in vivo. The method, then: Peripheral blood (PB) was drawn from the facial vein without anaesthesia into K/EDTA anti-coagulated tubes (Sarstedt AG & Co, Nimbrecht, Germany). Cell counts (WBC) were determined using an automatic hemocytometer (Hemavet 950, Drew Scientific, Dallas, Tex.). Red blood cells were removed from 25 μL aliquots of blood using hypotonic lysis (Ammonium-Chloride-Potassium, ACK buffer, 5-10 min at RT). Samples were resuspended in staining buffer (PBS supplemented with 0.5% bovine serum albumin and 2 mM EDTA) and incubated for 30 min at 4° C. with pre-titrated saturating dilutions of the following fluorochrome-labeled monoclonal antibodies (BD Biosciences, San Jose, Calif.; clone designated in parenthesis): Sca1-PE (D7), CD117-BV421 (ACK2), lineage-APC (17A2, RB6-8C5, RA3-6B2, Ter-119, M/170) and CD45-A700 (30-F11). Dead cells were excluded from these assays by staining with 2 μg/mL 7-amino-actinomycin D (Molecular Probes, Eugene, Oreg.) for 5 min prior to analysis. Appropriate isotype-matched negative controls were used to assess background fluorescence intensity. Samples were analyzed on a Beckman Coulter Gallios flow cytometer and data were analyzed using FlowJo software (TreeStar, Ashland, Oreg.). Absolute numbers of immunophenotypically defined populations (e.g. LSK) were calculated by identifying CD45 positive cells as WBC from the corresponding cell count analysis. Statistical comparisons of flow cytometry data were performed using an unpaired two-tailed Student t-test (GraphPad Prism). P-values ≤0.05 were considered significant.

For experiment [3], the system named is murine HSPCs. The experiment is described as follows: Colony forming cell (CFC/CFU) assay of mobilized peripheral blood, DBA/2 mice. The experiment is classed as in vivo. The conditions noted are these: for amount of CFU-C cells mobilized in combination with Groβt versus inhibitor alone: DBA/2J mice, FIG. 16. As to the method: The VLA-4 inhibitors Examples 1220, 1221, 1224, 1610, and 1611 were prepared in DMSO/10 mM sodium bicarbonate pH 8/saline (1%/49.5%/49.5%) and injected subcutaneously (SC) at a dose of 3 mg/kg.
(§2) Peripheral blood (PB) was drawn from the facial vein without anaesthesia into K/EDTA anti-coagulated tubes (Sarstedt AG & Co, Numbrecht, Germany). Red blood cells were removed from 25 L aliquots of blood using hypotonic lysis (Ammonium-Chloride-Potassium, ACK buffer, 5-10 min at RT) and samples were mixed with 2.5 mL methylcellulose media supplemented with a cocktail of recombinant cytokines (MethoCult 3434; Stem Cell Technologies, Vancouver, BC, Canada). Cultures were plated in duplicate in 35 mm dishes and placed in a humidified chamber with 5% CO2 at 37° C. After 7 d of culture, colonies containing at least 50 cells were counted using an inverted microscope in a blinded fashion.
Recombinant human CXCL2 (Groβt; R&D systems) was reconstituted in sterile Ca^+2/Mg^+2-free phosphate buffered saline (PBS) and injected subcutaneously (SC) at a dose of 2.5 mg/kg. Firategrast (U.S. Patent Application No. 2014/051655) was dissolved in Ca^+2/Mg^+2-free PBS plus 1% ethanol and injected intravenously at a dose of 100 mg/kg. RhG-CSF (Neupogen®, Filgrastim, Amgen, Thousand Oaks, Calif., USA) diluted in PBS was injected i.p. every 12 hrs at a dose of 100 μg/kg for a total of 9 (day 5) doses.
as §2, with “Co, Nimbrecht,” for “Co, Numbrecht,”, “25 μL” for “25 L”
Recombinant human CXCL2 (Groβt; R&D systems) was reconstituted in sterile Ca^+2/Mg^+2-free phosphate buffered saline (PBS) and injected subcutaneously (SC) at a dose of 2.5 mg/kg. Firategrast (published structure: C27H27F2NO6; U.S. Patent Application No. 2014/051655) was dissolved in Ca^+2/Mg^+2-free PBS plus 1% ethanol and injected intravenously at a dose of 100 mg/kg. RhG-CSF (Neupogen®, Filgrastim, Amgen, Thousand Oaks, Calif., USA) diluted in PBS was injected i.p. every 12 hrs at a dose of 100 μg/kg for a total of 9 (day 5) doses.

Experiment [4] relates to 5TGMI myeloma cells. The experiment is described as follows: Flow cytometry cell-based assay: inhibition of soluble VCAM-1 binding to 5TGMI myeloma cells. The settings on record: FIG. 12. As to the method:
as §1, with “(ALL) cells or 5TGMI myeloma” for “(ALL)”, “ALL or 5TGMI” for “ALL”

[5] abbreviates: Table 8; inhibition of sVCAM-1 binding to human G2 ALL cells; read-out: sVCAM-1 IC50.
[6] abbreviates: flow cytometry, FIG. 5, 8, 9, 12.
Setting [7] is: Table 10; inhibition of sVCAM-1 binding to human G2 ALL cells; read-out: sVCAM-1 IC50.
Where [8] appears, read: Table 12; inhibition of sVCAM-1 binding to human G2 ALL cells; read-out: sVCAM-1 IC50.

These results are taken from patent US20190328706A1, “COMPOSITIONS COMPRISING AN INTEGRIN INHIBITOR AND AGENTS WHICH INTERACT WITH A CHEMOKINE AND METHODS OF USE THEREOF” (Saint Louis University, priority 2016, published 2019).

Read-outs that look alike come from different tables or passages of the source.

With `CCOCc1cc(OC)c(-c2ccc(C[C@H](NC(=O)c3c(Cl)cccc3Cl)C(=O)O)cc2C(C)O)c(OC)c1` (stereo partly drawn) [Compound 1633, (2S)-2-(2,6-dichlorobenzamido)-3-(4′-(ethoxymethyl)-2-(1-hydroxyethyl)-2′,6′-dimethoxy-[1,1′-biphenyl]-4-yl)propanoic acid], the IC50 in experiment [1] (setting [5]) came to 3.33 nM. For the same molecule, the “inhibition of sVCAM-1 binding compared with Firategrast” value in experiment [1] (setting [6]) is “significantly more potent than Firategrast”. In addition, the “LSK cell mobilization compared with firategrast” value in experiment [2] is “greater extent than firategrast”.

As for `COc1cc(CC(=O)N[C@@H](CC(C)C)c2cc(CCC(=O)O)on2)ccc1NC(=O)Nc1ccccc1C` [Compound 842], the IC50 in experiment [1] (setting [7]) came to 0.4 nM. In addition, the “inhibition of sVCAM-1 binding compared with Firategrast” value in experiment [1] (setting [6]) was “significantly more potent”. Besides, in experiment [2] (DBA2/J mice, FIG. 15/29), the “LSK mobilization, VLA4 blockade combined with CXCR2 stimulation” value was “mobilized”. Further, the “CFU-C mobilization, VLA4 blockade combined with CXCR2 stimulation” value in experiment [3] (DBA2/J mice, FIG. 15/29) is “mobilized”.

In the case of `COc1cccc(OC)c1-c1ccc(C[C@H](NC(=O)[C@]2(C)CCCN2S(=O)(=O)c2cc(Cl)cc(Cl)c2)C(=O)O)cc1` [Compound 824], in experiment [1] (setting [7]), the half-inhibitory concentration (IC50) amounted to 0.6 nM. In addition, the “inhibition of sVCAM-1 binding compared with Firategrast” value in experiment [1] (setting [6]) is reported as “significantly more potent”. In addition, the “LSK cell mobilization compared with firategrast” value in experiment [2] is recorded as “greater extent than firategrast”.

In the case of `CCOCc1cc(OC)c(-c2ccc(C[C@H](NC(=O)[C@@H]3CCCN3S(=O)(=O)c3ccccc3)C(=O)O)cc2)c(OC)c1` [Compound 1610, (S)-3-(4′-(ethoxymethyl)-2′,6′-dimethoxy-[1,1′-biphenyl]-4-yl)-2-((S)-1-(phenylsulfonyl)pyrrolidine-2-carboxamido)propanoic acid], the IC50 in experiment [1] (setting [5]) was found to be 0.83 nM. For the same molecule, the “inhibition of sVCAM-1 binding compared with Firategrast” value in experiment [1] (setting [6]) is listed as “significantly more potent than Firategrast”. The “LSK cell mobilization compared with firategrast” value in experiment [2] is “greater extent than firategrast”. Also, the “inhibition of VCAM binding in 5TGMI cells compared with Firategrast / BIO5192” value in experiment [4] is “even more potent than BIO5192”.

Take `CCOCc1cc(OC)c(-c2ccc(C[C@H](NC(=O)c3c(Cl)cccc3Cl)C(=O)O)cc2C(C)O)c(OC)c1` (stereo partly drawn) [Cmpd 12, (2S)-2-(2,6-dichlorobenzamido)-3-(4′-(ethoxymethyl)-2-(1-hydroxyethyl)-2′,6′-dimethoxy-[1,1′-biphenyl]-4-yl)propanoic acid]: the IC50 in experiment [1] (setting [8]) came out at 3.33 nM. Besides, in experiment [3], the “amount of CFU-C cells mobilized in combination with Groβt versus inhibitor alone” value (from here on “amount … with Groβt versus inhibitor alone”) is “nearly doubled”.

For the molecule `CCOCc1cc(OC)c(-c2ccc(C[C@H](NC(=O)[C@@H]3CCCN3S(=O)(=O)c3ccccc3)C(=O)O)cc2)c(OC)c1` [Cmpd 35, (S)-3-(4′-(ethoxymethyl)-2′,6′-dimethoxy-[1,1′-biphenyl]-4-yl)-2-((S)-1-(phenylsulfonyl)pyrrolidine-2-carboxamido)propanoic acid], the IC50 in experiment [1] (setting [8]) came to 0.83 nM. For the same molecule, the “amount … with Groβt versus inhibitor alone” value in experiment [3] was “nearly doubled”.

As for `CCOCc1cc(OC)c(-c2ccc(C[C@H](NC(=O)[C@@H]3CCCN3S(=O)(=O)c3cc(Cl)cc(Cl)c3)C(=O)O)cc2)c(OC)c1` [Cmpd 36, (S)-2-((S)-1-((3,5-dichlorophenyl)sulfonyl)pyrrolidine-2-carboxamido)-3-(4′-(ethoxymethyl)-2′,6′-dimethoxy-[1,1′-biphenyl]-4-yl)propanoic acid], the concentration for half-maximal inhibition (IC50) in experiment [1] (read-out: sVCAM-1 IC50; Table 12; inhibition of sVCAM-1 binding to human G2 ALL cells) amounted to 0.49 nM. The “amount … with Groβt versus inhibitor alone” value in experiment [3] is “nearly doubled”.

As for `COc1cc(C(=O)O)cc(OC)c1-c1ccc(C[C@H](NC(=O)c2c(Cl)cc(C(=O)O)cc2Cl)C(=O)O)cc1` [Compound 1222, 4-{4-[(2S)-2-carboxy-2-[(4-carboxy-2,6-dichlorophenyl)formamido]ethyl]phenyl}-3,5-dimethoxybenzoic acid], in experiment [1] (setting [5]), the half-inhibitory concentration (IC50) is 218 nM.

`COCCOCc1cc(OC)c(-c2ccc(C[C@H](NC(=O)[C@@H]3CCCN3S(=O)(=O)c3ccc(C(=O)O)cc3)C(=O)O)cc2)c(OC)c1` [Compound 1747, 4-(((S)-2-(((S)-1-carboxy-2-(2′,6′-dimethoxy-4′-((2-methoxyethoxy)methyl)-[1,1′-biphenyl]-4-yl)ethyl)carbamoyl)pyrrolidin-1-yl)sulfonyl)benzoic acid]: the IC50 in experiment [1] (setting [5]) was determined as 7.58 nM.

`COc1cc(CF)cc(OC)c1-c1ccc(C[C@H](NC(=O)c2c(Cl)cc(C(=O)O)cc2Cl)C(=O)O)cc1` [Compound 1224, 4-{[(1S)-1-carboxy-2-{4-[4-(fluoromethyl)-2,6-dimethoxyphenyl]phenyl}ethyl]carbamoyl}-3,5-dichlorobenzoic acid]: in experiment [1] (setting [5]), the IC50 amounted to 1.57 nM. For the same molecule, the “inhibition of sVCAM-1 binding compared with other inhibitors” value in experiment [1] (flow cytometry, FIG. 6, 7, 10, 11) is “more potent inhibitors than 823”.

On to `COc1cc(C(C)(C)O)cc(OC)c1-c1ccc(C[C@H](NC(=O)c2c(Cl)cc(C(=O)O)cc2Cl)C(=O)O)cc1` [Compound 1223, 4-{[(1S)-1-carboxy-2-{4-[4-(2-hydroxypropan-2-yl)-2,6-dimethoxyphenyl]phenyl}ethyl]carbamoyl}-3,5-dichlorobenzoic acid], for which the IC50 in experiment [1] (setting [5]) stood at 70 nM.

`CCOCc1cc(OC)c(-c2ccc(C[C@H](NC(=O)[C@]3(C)CCCN3S(=O)(=O)c3ccccc3)C(=O)O)cc2)c(OC)c1` [Compound 1609, (S)-3-(4′-(ethoxymethyl)-2′,6′-dimethoxy-[1,1′-biphenyl]-4-yl)-2-((S)-2-methyl-1-(phenylsulfonyl)pyrrolidine-2-carboxamido)propanoic acid]: the half-maximal inhibitory concentration (IC50) in experiment [1] (setting [5]) is 11.7 nM. For the same molecule, the “inhibition of sVCAM-1 binding compared with Firategrast” value in experiment [1] (setting [6]) is reported as “significantly more potent than Firategrast”.
